Source: article PMC11876601 (Molecular Systems Biology, 2025)
Where two headings read alike, the source gives them in different places.

System: p-sites in DNA-damaged AsPC-1 cells
Assay: decryptM dose-resolved phosphoproteomics of ATRi in GEM-pre-treated cells
Assay type: cell-based, human
Conditions: for EC50: Homo sapiens; for ATRi Regulation (Curve), RALY S176: classified by CurveCurator
Procedure: Cell culture medium was replaced 24 h after seeding. […] For time point 0, AsPC-1 cells were treated with a vehicle and lysed immediately. The final DMSO concentration in all experiments was 0.2%.
Briefly, cells were washed twice with PBS and lysed in SDS lysis buffer (2% SDS in 40 mM Tris-HCl, pH 7.6), followed by sonication for 10 min (30 s on/30 s off) using a Bioruptor (Diagenode). For DNA hydrolysis, samples were boiled at 95 °C for 10 min and incubated with 2% trifluoroacetic acid (TFA) for 1 min, before the reaction was quenched using 4% N-methylmorpholine. Lysate was cleared by centrifugation at 11,000 × g for 5 min and protein concentration was determined using the Pierce BCA Protein Assay Kit (Thermo Scientific).
Using 70% ethanol, samples were then precipitated on beads, followed by washing thrice with 80% ethanol and once with 100% acetonitrile. Subsequently, proteins were reduced and alkylated using 10 mM TCEP, 50 mM chloroacetamide, and 2 mM CaCl2 in 100 mM EPPS/NaOH, pH 8.5 for 1 h at 37 °C, followed by tryptic digestion at 37 °C for 16 h. Peptides were acidified with 1% TFA and desalted on Chromabond HLB plates (30 µm particle size, 10 mg capacity, Machery-Nagel), using 0.1% TFA for equilibration and sample loading, and 0.1% TFA in 70% acetonitrile for peptide elution. Recovered peptides were freeze-dried by vacuum-centrifugation and stored at −20 °C.
Depending on the experiment, samples were either labeled with TMT-11plex (decryptM), TMT-10plex (non-decryptM, quadruplicates), or TMTpro reagent (time-series; all Thermo Scientific). Therefore, dried peptides were reconstituted in 15 µl 100 mM EPPS, pH 8.5 and each treatment condition was labeled with one channel of the respective TMT reagent (5 µl of 25 µg/µl reagent, Appendix Tables S4–S6). The reaction was incubated for 1 h at 23 °C and subsequently quenched with 0.4% hydroxylamine. Then, samples were pooled, acidified with 1% formic acid, and freeze-dried by vacuum-centrifugation. Labeled peptide pools were desalted on C18 Sep-Pak cartridges (37–55 µm particle size, 50 mg capacity, Waters), using 0.1% formic acid as equilibration solvent, and 0.1% formic acid in 60% acetonitrile was used as elution solvent. Eluted peptides were freeze-dried and stored at −20 °C until further use.
Basic reversed-phase (bRP) fractionation of peptides was performed on a Vanquish HPLC (Thermo Scientific). In short, dried peptides were reconstituted in 200 µl 25 mM ammonium bicarbonate, pH 8.0 and directly injected onto a Waters BEH130 XBridge C18 column (3.5 µm, 4.6 × 250 mm). […] Using an automated fraction collector, 96 fractions were collected between min 7 and 55 after injection. Fractions were acidified with 1% formic acid and pooled to 48 fractions, before they were freeze-dried and stored at −20 °C.
Immobilized metal ion affinity chromatography (IMAC) enrichment of phosphorylated peptides was performed on the Bravo automated liquid handling platform using AssayMAP Fe(III)-NTA cartridges (Agilent). In brief, the 48 dried peptide fractions were reconstituted in 0.1% TFA in 80% acetonitrile and further pooled to 12 fractions (200 µl final volume per well). The phosphopeptide enrichment protocol embedded in the Agilent AssayMAP Bravo Protein Sample Prep Workbench v2.0 software was run. Thereby, the cartridges were first primed with 150 μl 0.1% TFA in acetonitrile at 300 μl/min, and equilibrated with 150 μl 0.1% TFA in 80% acetonitrile at 10 μl/min. Then, pooled fractions were loaded at 5 µl/min and further washed three times with 150 μl 0.1% TFA in 80% acetonitrile at 50 μl/min. Enriched peptides were eluted with 60 μl 1% ammonium hydroxide at 5 μl/min.

[1] = source data 4B (p-site not named), 1 µM GEM + ATRi 10 nM
[2] = source data 4B (p-site not named), 1 µM GEM + ATRi 300 nM
[3] = source data 4B (p-site not named), 1 µM GEM + ATRi 1000 nM
[4] = source data 4B (p-site not named), 1 µM GEM + ATRi 3000 nM
[5] = source data 4B (p-site not named), 1 µM GEM + ATRi 10000 nM

Nc1nn2cc(F)cnc2c1C(=O)Nc1cncc(F)c1N1CCC(C(=O)N2CCN(C3COC3)CC2)CC1 [Gartisertib]
Ratio TMT 9 (PTM response normalized to 1,000 nM GEM), AAAS S495 (1,000 nM GEM + 1 nM ATRi): 1.01
Ratio TMT 8 (PTM response normalized to 1,000 nM GEM), AAAS S495 (1,000 nM GEM + 3 nM ATRi): 1.19
Ratio TMT 7 (PTM response normalized to 1,000 nM GEM), AAAS S495 (1,000 nM GEM + 10 nM ATRi): 1.10
Ratio TMT 6 (PTM response normalized to 1,000 nM GEM), AAAS S495 (1,000 nM GEM + 30 nM ATRi): 1.01
Ratio TMT 5 (PTM response normalized to 1,000 nM GEM), AAAS S495 (1,000 nM GEM + 100 nM ATRi): 0.97
Ratio TMT 4 (PTM response normalized to 1,000 nM GEM), AAAS S495 (1,000 nM GEM + 300 nM ATRi): 1.12
Ratio TMT 3 (PTM response normalized to 1,000 nM GEM), AAAS S495 (1,000 nM GEM + 1,000 nM ATRi): 1.11
Ratio TMT 2 (PTM response normalized to 1,000 nM GEM), AAAS S495 (1,000 nM GEM + 3,000 nM ATRi): 1.00
Ratio TMT 1 (PTM response normalized to 1,000 nM GEM), AAAS S495 (1,000 nM GEM + 10,000 nM ATRi): 1.09
Log2 PTM response (GEM+ATRi vs. GEM) (AASDHPPT-pS258): -1.6
Log2 PTM response (GEM+ATRi vs. GEM) (BRCA1-pS1239): -2
Log2 PTM response (GEM+ATRi vs. GEM) (BRD8-pS621): -1.6
Log2 PTM response (GEM+ATRi vs. GEM) (CDKN2AIP-pS198): -1.3
Log2 PTM response (GEM+ATRi vs. GEM) (CHEK1-pS317): -2.3
Log2 PTM response (GEM+ATRi vs. GEM) (EXO1-pS714): -1.9
Log2 PTM response (GEM+ATRi vs. GEM) (FANCD2-pS319): -1
Log2 PTM response (GEM+ATRi vs. GEM) (HDGF-pS103): -1.6
Log2 PTM response (GEM+ATRi vs. GEM) (HMGA1-pS9): -2
Log2 PTM response (GEM+ATRi vs. GEM) (HMGA1-pS36;S44): -0.9
Log2 PTM response (GEM+ATRi vs. GEM) (HMGA1-pS44): -2.1
Log2 PTM response (GEM+ATRi vs. GEM) (HTATSF1-pS481): -1.1
EC50 (ASPC1, approximate, from density plot Fig. 4C (peer review file), read-out: EC50 of the majority of pSQ/pTQ sites): ~10 nM
EC50 (ASPC1, approximate, from density plot Fig. 4C (peer review file), read-out: pEC50 of the majority of pSQ/pTQ sites (converted)): ~10 nM
EC50 (ASPC1, p-site dose-response in GEM-pre-treated cells, read-out: EC50, RALY S176): 1.91 nM
EC50 (ASPC1, p-site dose-response in GEM-pre-treated cells, read-out: pEC50, RALY S176 (converted)): 1.91 nM
EC50 (ASPC1, read-out: median EC50 across all drug-regulated pSQ/pTQ-sites): 21 nM
Log2 PTM response (GEM+ATRi vs. GEM) (LRRC42-pS385): -2.5
Log2 PTM response (GEM+ATRi vs. GEM) (NBN-pS397): -1.3
Log2 PTM response (GEM+ATRi vs. GEM) (NBN-pS615): -0.8
Log2 PTM response (GEM+ATRi vs. GEM) (NSUN5-pS432): -2.2
Log2 PTM response (GEM+ATRi vs. GEM) (PELP1-pS1033): -1
Log2 PTM response (GEM+ATRi vs. GEM) (PHF14-pS294): -1.2
Log2 PTM response (GEM+ATRi vs. GEM) (PNISR-pS706): -1.9
Log2 PTM response (GEM+ATRi vs. GEM) (PPM1G-pS201): -2.3
Log2 PTM response (GEM+ATRi vs. GEM) (PPP6R3-pS825): -1
Log2 PTM response (GEM+ATRi vs. GEM) (PSMD4-pS266): -1.2
Log2 PTM response (GEM+ATRi vs. GEM) (RAD18-pS368): -2.8
Log2 PTM response (GEM+ATRi vs. GEM) (RIF1-pS1873): -1.4
Log2 PTM response (GEM+ATRi vs. GEM) (SNRPA-pS115): -1
Log2 PTM response (GEM+ATRi vs. GEM) (TCEA1-pS100;S97): -2.6
Log2 PTM response (GEM+ATRi vs. GEM) (TCEB3-pS251): -1.6
Log2 PTM response (GEM+ATRi vs. GEM) (THAP4-pS186): -1.3
Log2 PTM response (GEM+ATRi vs. GEM) (TOPBP1-pS1504): -1.4
Log2 PTM response (GEM+ATRi vs. GEM) (TSEN34-pS136): -1.3
Log2 PTM response (GEM+ATRi vs. GEM) (UHRF1-pS393): -0.6
Log2 PTM response (GEM+ATRi vs. GEM) (UIMC1-pS171): -1
ATRi Regulation (Curve), RALY S176: down
Curve Log2 Fold Change, RALY S176 (fitted dose-response curve): -1.45 log2
PTM response (norm. to 1 µM GEM) (source data 4B (p-site not named), 1 µM GEM + ATRi 1 nM): 1.13
PTM response (norm. to 1 µM GEM) (source data 4B (p-site not named), 1 µM GEM + ATRi 3 nM): 0.97
PTM response (norm. to 1 µM GEM) [1]: 0.75
PTM response (norm. to 1 µM GEM) (source data 4B (p-site not named), 1 µM GEM + ATRi 30 nM): 0.41
PTM response (norm. to 1 µM GEM) (source data 4B (p-site not named), 1 µM GEM + ATRi 100 nM): 0.29
PTM response (norm. to 1 µM GEM) [2]: 0.28
PTM response (norm. to 1 µM GEM) [3]: 0.21
PTM response (norm. to 1 µM GEM) [4]: 0.17
PTM response (norm. to 1 µM GEM) [5]: 0.19

C[C@@H]1COCCN1c1cc(-c2ccnn2C)c2ccnc(-c3ccn[nH]3)c2n1 [Elimusertib]
Log2 PTM response (GEM+ATRi vs. GEM): -0.6
Log2 PTM response (GEM+ATRi vs. GEM) (BRCA1-pS1239): -1.6
Log2 PTM response (GEM+ATRi vs. GEM) (BRD8-pS621): -1.4
Log2 PTM response (GEM+ATRi vs. GEM) (CDKN2AIP-pS198): -1.1
Log2 PTM response (GEM+ATRi vs. GEM) (CHEK1-pS317): -1.9
Log2 PTM response (GEM+ATRi vs. GEM) (CHEK1-pS468): -3
Log2 PTM response (GEM+ATRi vs. GEM) (DHX9-pS321): -1.6
Log2 PTM response (GEM+ATRi vs. GEM) (EXO1-pS714): -1
Log2 PTM response (GEM+ATRi vs. GEM) (FANCD2-pS319): -1.9
Log2 PTM response (GEM+ATRi vs. GEM) (HDGF-pS103): -1.1
Log2 PTM response (GEM+ATRi vs. GEM) (HMGA1-pS9): -1.4
Log2 PTM response (GEM+ATRi vs. GEM) (HMGA1-pS36;S44): -1
Log2 PTM response (GEM+ATRi vs. GEM) (HMGA1-pS44): -1.5
Log2 PTM response (GEM+ATRi vs. GEM) (HSPA4-pS552): -0.7
Log2 PTM response (GEM+ATRi vs. GEM) (HTATSF1-pS481): -0.8
EC50 (ASPC1, read-out: EC50, RALY S176): 12.8 nM
Log2 PTM response (GEM+ATRi vs. GEM) (LRRC42-pS385): -2.3
Log2 PTM response (GEM+ATRi vs. GEM) (NBN-pS397): -0.9
Log2 PTM response (GEM+ATRi vs. GEM) (NBN-pS615): -0.8
Log2 PTM response (GEM+ATRi vs. GEM) (PELP1-pS1033): -1
Log2 PTM response (GEM+ATRi vs. GEM) (PNISR-pS706): -1.9
Log2 PTM response (GEM+ATRi vs. GEM) (PPP6R3-pS825): -0.5
Log2 PTM response (GEM+ATRi vs. GEM) (PSMD4-pS266): -0.9
Log2 PTM response (GEM+ATRi vs. GEM) (RAD18-pS368): -2.1
Log2 PTM response (GEM+ATRi vs. GEM) (RIF1-pS1873): -0.6
Log2 PTM response (GEM+ATRi vs. GEM) (SNRPA-pS115): -1.1
Log2 PTM response (GEM+ATRi vs. GEM) (TCEA1-pS100;S97): -2
Log2 PTM response (GEM+ATRi vs. GEM) (TCEB3-pS251): -0.7
Log2 PTM response (GEM+ATRi vs. GEM) (THAP4-pS186): -1.1
Log2 PTM response (GEM+ATRi vs. GEM) (TOPBP1-pS1504): -1.2
Log2 PTM response (GEM+ATRi vs. GEM) (TSEN34-pS136): -0.8
Log2 PTM response (GEM+ATRi vs. GEM) (UHRF1-pS393): -0.7
Log2 PTM response (GEM+ATRi vs. GEM) (UIMC1-pS171): -1.7
Log2 PTM response (GEM+ATRi vs. GEM) (ZC3H14-pS135): -1.6
ATRi Regulation (Curve), RALY S176: down
PTM response (norm. to 1 µM GEM) [1]: 0.81
PTM response (norm. to 1 µM GEM) [2]: 0.28
PTM response (norm. to 1 µM GEM) [3]: 0.29
PTM response (norm. to 1 µM GEM) [4]: 0.30
PTM response (norm. to 1 µM GEM) [5]: 0.27
PTM response (norm. to 1 µM GEM) (source data 5B (p-site not named), 1 µM GEM + ATRi 3 nM): 0.67
PTM response (norm. to 1 µM GEM) (source data 5B (p-site not named), 1 µM GEM + ATRi 30 nM): 0.17
